# From paper PMC4580987, “Catalytic site inhibition of insulin-degrading enzyme by a small molecule induces glucose intolerance in mice” (Nature Communications, 2015)
# Assays:
# recombinant human ECE-1 = target: T1, recombinant human ECE-1 (Homo sapiens, UniProt P42892); test: Endothelin-converting enzyme inhibition (CEREP); type: biochemical; settings: means of two experiments minimum, s.d.±10%; read-out: Selectivity IC50 hECE
# T1 construct: host or cells: NSO cells
# T1 sequence (P42892 1-770): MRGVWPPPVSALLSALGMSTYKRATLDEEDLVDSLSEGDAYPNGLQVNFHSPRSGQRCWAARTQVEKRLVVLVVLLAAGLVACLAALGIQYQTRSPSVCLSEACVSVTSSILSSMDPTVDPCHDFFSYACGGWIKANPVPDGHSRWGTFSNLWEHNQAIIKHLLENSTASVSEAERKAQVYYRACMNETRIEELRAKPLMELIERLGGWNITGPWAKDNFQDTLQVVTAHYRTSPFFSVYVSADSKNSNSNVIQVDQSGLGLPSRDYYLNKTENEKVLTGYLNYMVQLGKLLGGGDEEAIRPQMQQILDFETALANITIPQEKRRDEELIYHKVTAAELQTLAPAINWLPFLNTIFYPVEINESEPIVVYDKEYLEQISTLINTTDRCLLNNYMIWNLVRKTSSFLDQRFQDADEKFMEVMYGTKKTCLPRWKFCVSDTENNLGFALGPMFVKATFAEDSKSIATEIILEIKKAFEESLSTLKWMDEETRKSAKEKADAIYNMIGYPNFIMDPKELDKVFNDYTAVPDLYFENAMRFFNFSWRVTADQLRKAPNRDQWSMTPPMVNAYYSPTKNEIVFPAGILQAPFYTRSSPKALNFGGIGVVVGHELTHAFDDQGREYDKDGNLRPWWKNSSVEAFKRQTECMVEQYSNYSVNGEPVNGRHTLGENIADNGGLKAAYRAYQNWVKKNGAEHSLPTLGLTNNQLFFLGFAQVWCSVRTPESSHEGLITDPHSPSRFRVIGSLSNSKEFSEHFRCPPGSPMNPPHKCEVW
# human ACE = target: T2, human ACE (Homo sapiens, UniProt P12821); test: ACE selectivity assay; type: biochemical; settings: >10 μM stands for <10% at 10 μM; read-out: Selectivity IC50 hACE
# T2 construct: purchased R&D Systems
# Experimental: Briefly, human NEP (R&D Systems; 200 ng ml^−1) was incubated 10 min at room temperature with compound in Hepes 50 mM, NaCl 100 mM, pH 7.4 and the enzymatic reaction started by adding the substrate (final concentration 200 μM). […] Briefly, human ACE (R&D Systems) was incubated 10 min at room temperature with compound in Tris 50 mM 1% NaCl pH 7.4 and the enzymatic reaction is started by adding the substrate (final concentration 300 μM). […] In vitro activity was assayed at CEREP.SA as follows.
# Solubility in PBS pH 7.4 = type: physicochemical; settings: aqueous buffer, kinetic from dmso stock
# Experimental: Ten microlitre of a 10 mM solution in DMSO of the compound are diluted either in 490 μl of PBS pH 7.4 or in organic solvent MeOH in a 700 μl-microtube (in triplicate). The tubes are gently shaken 24 h at room temperature, then centrifuged for 5 min at 4,000 r.p.m. The mixtures are filtered over 0.45 μm filters (Millex-LH Millipore). Twenty microlitre of sample are diluted in 180 μl of MeOH. The solubility is determined by the ratio of mass signal area PBS/ organic solvent. Forty microlitre of a 10 mM solution in DMSO of the compound were diluted in 1.960 ml of a 1/1 octanol /PBS at pH 7.4 mixture. The mixture was gently shaken 2 h at room temperature. Twenty microlitre of each phase was diluted in 480 μl of MeOH and analysed by LC–MS. Each compound is tested in triplicate. Log D was determined as the logarithm of the ratio of concentration of product in octanol and PBS respectively, determined by mass signals.
# Caco-2 permeation assay = type: in vitro ADME; settings: human, 37 °C, pH 7.4/7.4
# Description: Caco-2 cells were provided by ATCC and checked for mycoplasma contamination. These cells are not listed by ICLAC as misidentified cell lines (October 3rd, 2014). A total of 0.4 × 10^5 Caco-2 cells (ATCC no. […] The paracellular barrier characteristics of Caco-2 cells monolayer was monitored using (i) measurement of […] and (ii) measurement of the permeability to the non-permeant fluorescent molecule, Lucifer Yellow. Caco-2 cells were trypsinized after 3 days of incubation while they cover 80–90% of the flask and seeded at a density of 5 × 10^5 in 75 cm^2 flasks in complete medium supplemented with 73 nM (∼0.04 μg ml^−1) of the antibacterial puromycin (3′-[α-amino-p-methoxyhydrocinnamamido]-3′-deoxy-N,Ndimethyladenosine dihydrochloride). After 5–6 days, Caco-2 cells reach high cells density (>0.5 × 10^5 cells per cm^2) and are then passage into cell HTS 24-well plates with 0.4 μm polycarbonate membrane inserts. Cells were seeded at 600,000 cells per cm^2 (200,000 cells per insert) and cultivated for 6 days in complete medium with puromycin. Media was replaced every second days. Compound solutions were prepared in HEPES-buffered Ringerŕs (RH) solution (NaCl 150 mM, KCl 5.2 mM, CaCl2 2.2 mM, MgCl2 0.2 mM, NaHCO3 6 mM, Glucose 2.8 mM, HEPES 5 mM, water for injection), pH=7.4 at a final concentration of 1 or 10 μM for tested drugs. For A→B transport experiment, 0.2 ml of the compound solution was placed on the apical side of the cells and samples were taken from the basolateral compartment. For B→A transport experiment 0.8 ml of the solution was placed on the basolateral side of the cells and samples were taken from apical side. Transport Studies were done in Transwell polycarbonate: HTS 24-well plate inserts (surface area: 0.33 cm^2–0.4 μm pore size). Cells were equilibrated for 10 min in transport buffer prior to the transport experiment, and then incubations with compounds were performed at 37 °C under agitation. After 1 h aliquots were taken from each compartment and sampled in 96-well plates with glass insert. Permeation and the % of recovery are calculated using the formulas below: […]
# T2 sequence (P12821 30-1306): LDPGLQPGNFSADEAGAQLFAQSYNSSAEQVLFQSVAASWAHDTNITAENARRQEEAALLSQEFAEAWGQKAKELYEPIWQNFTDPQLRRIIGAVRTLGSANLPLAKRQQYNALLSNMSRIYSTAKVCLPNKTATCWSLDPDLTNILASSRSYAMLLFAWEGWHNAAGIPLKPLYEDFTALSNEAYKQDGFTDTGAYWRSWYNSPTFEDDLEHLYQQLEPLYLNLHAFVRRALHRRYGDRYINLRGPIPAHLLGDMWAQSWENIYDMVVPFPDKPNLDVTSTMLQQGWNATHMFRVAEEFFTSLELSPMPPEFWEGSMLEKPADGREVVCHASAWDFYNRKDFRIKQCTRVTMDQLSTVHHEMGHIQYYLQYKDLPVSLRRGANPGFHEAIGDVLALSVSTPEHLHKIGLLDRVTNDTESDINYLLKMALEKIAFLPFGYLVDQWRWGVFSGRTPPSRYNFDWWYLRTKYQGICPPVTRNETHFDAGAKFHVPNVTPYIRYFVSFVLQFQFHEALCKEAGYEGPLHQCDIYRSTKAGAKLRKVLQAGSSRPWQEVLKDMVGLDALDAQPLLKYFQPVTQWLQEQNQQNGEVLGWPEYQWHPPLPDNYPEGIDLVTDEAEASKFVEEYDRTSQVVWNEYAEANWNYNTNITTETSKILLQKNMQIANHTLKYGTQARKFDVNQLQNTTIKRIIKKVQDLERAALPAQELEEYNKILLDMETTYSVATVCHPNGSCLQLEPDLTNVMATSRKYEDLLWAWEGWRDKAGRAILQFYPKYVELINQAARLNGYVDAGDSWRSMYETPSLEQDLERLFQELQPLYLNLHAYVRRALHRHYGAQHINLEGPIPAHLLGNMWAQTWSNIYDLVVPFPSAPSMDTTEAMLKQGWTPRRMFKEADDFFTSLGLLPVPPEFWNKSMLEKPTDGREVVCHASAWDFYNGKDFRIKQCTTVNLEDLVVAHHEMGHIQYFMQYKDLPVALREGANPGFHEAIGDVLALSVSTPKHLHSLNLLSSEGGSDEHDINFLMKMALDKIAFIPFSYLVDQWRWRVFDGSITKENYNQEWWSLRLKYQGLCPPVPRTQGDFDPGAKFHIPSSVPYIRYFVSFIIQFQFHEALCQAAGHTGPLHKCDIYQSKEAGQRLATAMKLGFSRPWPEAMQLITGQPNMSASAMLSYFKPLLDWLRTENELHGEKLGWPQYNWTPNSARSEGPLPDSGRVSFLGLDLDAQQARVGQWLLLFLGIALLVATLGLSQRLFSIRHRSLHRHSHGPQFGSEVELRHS
smiles,measurement,setting,value
O=C(C[C@@H](Cc1ccc2ccccc2c1)n1cc(CNC(=O)c2ccc(F)cc2)nn1)NO [Compound 1],IC50,recombinant human ECE-1,6.5 µM
same,IC50,human ACE,> 10 µM
same,solubility at 24 h,Solubility in PBS pH 7.4,58 µM
same,"Papp A→B at 1 h, 1 μM","Caco-2 permeation assay; Caco-2, A→B, 1 μM",3.3 ×10⁻⁶ cm/s
same,"Papp A→B at 1 h, 10 μM","Caco-2 permeation assay; Caco-2, A→B, 10 μM",2.4 ×10⁻⁶ cm/s
same,"Papp B→A at 1 h, 1 μM","Caco-2 permeation assay; Caco-2, B→A, 1 μM",19 ×10⁻⁶ cm/s
same,"Papp B→A at 1 h, 10 μM","Caco-2 permeation assay; Caco-2, B→A, 10 μM",17 ×10⁻⁶ cm/s
